The record followed here is paper PMC4838876, “Multivalent display of minimal Clostridium difficile glycan epitopes mimics antigenic properties of larger glycans” (Nature Communications, 2016).

SMILES strings stand for the structures.

For assay [1], the system named is anti-PS-I mAbs 2C5, 10A1 and 10D6. The experiment in a line: Kinetic SPR, summary over the three anti-PS-I mAbs. In kind it is binding, mouse. The note with it: for Kd: SPR, range over mAbs 2C5, 10A1, 10D6. Here is the method:
Kinetic SPR experiments were performed to determine the binding strengths of the mAbs to PS-I glycans expressed as dissociation constants (KD)[8] (Fig. 5a). […] Overall, the SPR measurements (summarized in Table 1) confirmed results obtained by glycan microarray presented above.
Binding analyses were carried out on a Biacore T100 instrument (GE Healthcare). CM5 sensor chips were functionalized with about 10,000 RUs of α-mouse IgG capture antibody, using the Mouse Antibody Capture Kit and the Amine Coupling Kit (GE Healthcare) according to the manufacturer's recommendations. A blank-immobilized flow cell was used as reference, to compensate for nonspecific binding of antibodies or oligosaccharides to the sensor chip surface. Kinetic measurements were performed with the Biacore T100 Control software using the ‘Kinetics' function. PBS was used as running buffer and all measurements were performed at 25 °C and a flow rate of 30 μl min^−1. About 500 RUs of mAbs were captured at a concentration of 50 μg ml^−1 diluted in PBS and oligosaccharides or OAAs (in PBS) at the indicated concentrations were passed through, using the standard parameters for association and dissociation times unless mentioned otherwise. Flow cells were regenerated with 10 mM glycine-HCl pH 1.7 for 30 s. Kinetic evaluation of binding responses was performed with the Biacore T100 Evaluation software, using reference-subtracted sensorgrams. Two different kinetic models, a 1:1 binding Langmuir model and a two-state reaction model, which assumes a conformational change in the antibody–analyte complex, were used to fit the data. The fitting quality was evaluated by investigating respective residual plots, χ^2 and s.e. values for on- and off-rates. Both models yielded similar good fittings. We chose the 1:1 binding model over the two-state reaction model to calculate on- and off-rates, as well as KD values, as this model makes fewer assumptions. When on-rates and/or off-rates were outside of the measurable ranges of the instrument, the steady-state affinity model was used instead to determine KD values. […]

For assay [2], the system named is mAb 2C5. Description: Interaction Map (IM) analysis based on SPR traces. The assay is classed as binding, mouse. An excerpt:
Pentasaccharide 1 was bound with about 100-fold lower KD values than the minimal glycan epitope 3. This stronger binding may have been due to avidity (re-binding) effects, as 3 is contained twice in 1, or by higher affinity. To address this question, we compared the binding properties by IM analysis based on SPR traces. […] Both antigens interacted with mAb 2C5 in a 1:1-like manner, indicated by one dominant peak in the IM plots. Therefore, stronger antibody binding to 1 was due to increased affinity, not avidity, which would be characterized by differences in off-rates and additional peaks.
Figure 7 IM and thermodynamic analysis of glycan–mAb interactions and conformation of 1. (a) IM analysis. The heat maps represent on- and off-rates of mAb 2C5 to 1 (upper) and 3 (lower). (b) Thermograms acquired using 7 μM of mAb 2C5 and titrating 250 μM of 1 (left) or 3 mM of 3 (right) at 25 °C. Thermodynamic parameters were inferred by nonlinear least-square fits of the data points. (c) Summary of thermodynamic parameters for 1 and 3 interacting with mAbs 2C5 and 10A1. Bars represent mean±s.e.m. of two independent measurements. See Supplementary Fig. 6 for details. (d) One-dimensional proton NMR spectrum, and 2D zTOCSY and NOE spectroscopy (NOESY) NMR spectra of 1 showing the coupled protons to the anomeric protons of the five residues with numbering according to the structure shown in e. […]

As a reminder, the Kd is the constant that tells how readily two partners part at equilibrium. The low end stands for tighter binding, the high end for weaker binding.

In the case of `C[C@@H]1O[C@@H](O[C@@H]2[C@@H](O)[C@H](O[C@H]3[C@H](O[C@@H]4O[C@@H](C)[C@H](O)[C@@H](O)[C@H]4O)[C@@H](O)[C@@H](O[C@H]4[C@@H](OCCCCCN)O[C@H](CO)[C@@H](O)[C@@H]4O)O[C@@H]3CO)O[C@H](CO)[C@H]2O)[C@H](O)[C@H](O)[C@H]1O` [Compound 1], the “fold lower KD values than minimal glycan epitope 3” value in assay [1] (KD of 1 compared with 3) was “about 100 fold”. In assay [1], this compound came in with an equilibrium dissociation constant (Kd) of 0.163 to 0.245 µM. The on-rate in assay [2] was 126,000 M^−1 s^−1.
In turn, `C[C@@H]1O[C@@H](O[C@@H]2[C@@H](O)[C@H](OCCCCCN)O[C@H](CO)[C@H]2O)[C@H](O)[C@H](O)[C@H]1O` [Compound 3, Rha-(1→3)-Glc] came in with a Kd in assay [1] of 5.9 to 37.5 µM. Also, in assay [2], the on-rate was determined as 250 M⁻¹ s⁻¹.
